Publication PMC10587159, “Biosynthesis and engineering of the nonribosomal peptides with a C-terminal putrescine” (Nature Communications, 2023)
Non-standard residues stand in square brackets, D forms with d. Residues, ends and D or L forms follow the SMILES beside them. *: point of attachment. dMet(O) = CS(=O)CC[C@@H](N)C(=O)O; Lauroyl = CCCCCCCCCCCC(=O)*; Decanoyl = CCCCCCCCCC(=O)*; NH(CH2)4NH2 = NCCCCN*; For = O=C*

Experiments:
[1] = tested on: S. brevitalea DSM 7029 wild type; assay: Growth curve of DSM 7029 wild type with compounds (Bioscreen C); assay type: cell-based, Schlegelella brevitalea DSM 7029; settings: CYMG medium, compound 0.1 μg/μL, OD600 every hour for 42 h, Bioscreen C
Description: (§1) The growth curve was tested by Bioscreen C (Labsystems, Finland) as follow. Overnight culture was inoculated into 400 μL fresh CYMG medium in the ratio of 1:100 (the concentration of compounds was 0.1 μg/μL) and shook in normal speed. The OD600 value was gained in every hour for 42 h in total. Biofilm formation was measured at 18 h and 36 h respectively, as reported previously. In brief, the free-floating cells were removed, and the microtitre plate was washed with PBS (pH 7.4) after incubation for 18 h and 36 h. The biofilm was stained by adding 200 µL of crystal violet (0.1%) solution. Crystal violet solution was removed after 15 min and 200 µL of ethanol (95%) was added. The absorbance at OD600 was read using a microplate reader (Infinite M200, Tecan, Männedorf, Switzerland). Meanwhile, free-floating cells were used to test the secretion of pigment. The bacteria were removed and the supernatant was measured at OD600.

[2] = tested on: S. brevitalea DSM 7029 wild type; assay: Biofilm formation of DSM 7029 wild type with compounds (crystal violet); assay type: cell-based, Schlegelella brevitalea DSM 7029
Description: as §1

[3] = tested on: human lung adenocarcinoma cell A549; assay: MTT cytotoxicity assay, A549; assay type: cell-based; settings: 24 h
From the text: (§2) The two human acute lymphoblastic leukemia cells K562 and Kasumi, two human breast adenocarcinoma cells MCF7 and MDA-MB-231, human hepatoma cell HepG-2, human lung adenocarcinoma cell A549, human gastric cancer cell SGC-7901, human colon cancer cell HCT-116, human ovarian cancer cell line SKOV3, or human lung epithelial normal cell 2B were obtained from Beyotime Biotechnology and utilized to test the cytotoxicity of compounds by MTT assays as previous study. The anti-inflammatory effect of the compounds was detected by the influence on the increase in the level of nitric oxide caused by lipopolysaccharide (LPS) based on the classic Griess method. RAW 264.7 cells (Shanghai Institutes for Biological Science) were seeded in 96-well plates and incubated for 24 h. Then, cells were treated with compounds 29, 29a, 31, and 31a (0-80 μM) for 30 min, followed by co-treatment with LPS ([…]) for another 24 h. The Nitric Oxide assay kit with Griess reagents (Beyotime, Lot: S0021, Shanghai, China) was used to examine cellular supernatant nitrite accumulation, which represents cellular NO levels. The OD value of 540 nm absorbance was detected with a microplate reader. Their authentication in the laboratory was performed regularly based on morphology and gene/protein expression. The tested micro-organisms including Gram-negative bacteria E. coli ATCC 35218 and Pseudomonas aeruginosa ATCC 27853, and Gram-positive bacteria Staphylococcus aureus ATCC 29213 and B. subtilis ATCC 6633, and fungi Candida albicans, Rhizoctonia solani and Aspergillus fumigatus were treated with different concentrations of compounds (1 μM, 10 μM, 100 μM) using Bauer-Kirby disk diffusion method to evaluate the antimicrobial activities.

human cells Kasumi = assay: MTT cytotoxicity assay, Kasumi; assay type: cell-based; settings: 24 h
From the text: as §2

[4] = tested on: human breast adenocarcinoma cells MCF7; assay: cells; assay type: cell-based; settings: 24 h
From the text: as §2

[5] = tested on: human colon cancer cell HCT-116; assay: cells; assay type: cell-based; settings: 24 h
From the text: as §2

[6] = tested on: human lung epithelial normal cell 2B; assay: cells; assay type: cell-based; settings: 24 h
From the text: as §2

[7] = tested on: human gastric cancer cell SGC-7901; assay: cells; assay type: cell-based; settings: 24 h
From the text: as §2

[8] = tested on: human acute lymphoblastic leukemia cells K562; assay: cells; assay type: cell-based; settings: 24 h
From the text: as §2

[9] = tested on: human hepatoma cell HepG-2; assay: cells; assay type: cell-based; settings: 24 h
From the text: as §2

[10] = tested on: human breast adenocarcinoma cells MDA-MB-231; assay: cells; assay type: cell-based; settings: 24 h
From the text: as §2

tumor lines = assay: MTT cytotoxicity assay, statements on the whole panel; assay type: cell-based, human; settings: MTT assay, panel of tumor cell lines
From the text: as §2

[11] = tested on: C13 domain of GdnB fragments and mutants; assay: Condensation of T12-linked L-Ala with Put or other diamines (yield of 24a-27a, LC-MS); assay type: biochemical, Schlegelella brevitalea DSM 7029; settings: Average of n = 3
Description: In vitro assays for the different enzymes of the C-terminal multi-domains were performed. Reaction buffer contained 80 μM protein, 3 μM Sfp from B. subtilis, 200 μM CoA, 2.5 mM L-Ala and 5 mM ATP was incubated at 30 °C for 30 min. Then, 2.5 mM diamines or polyamines (i.e. putrescine, 1,7-diaminoheptane, 1,6-diaminohexane, 1,5-diaminopentane, 1,2-diaminocyclohexane, spermine, and spermidine, respectively) was added to make final volume of 200 μL. The reaction was further incubated at 30 °C for 1 h or 4 h. Triple amount of cold methanol was added to quench the reaction, and the supernatant was dried by SpeedVac after removed the precipitate at 10,000 × g for 8 min. The reaction mixture was dissolved with 200 μL ddH2O, and then the mixture was derived with D-FDAA according to the procedure of the above Marfey’s analysis. The final reaction mixture was suspended using 100 μL 2 M HCl, which subsequently was dried by SpeedVac. Finally, the mixture dissolved with 100 μL MeOH to detect the target products (24a, 25a, 26a, and 27a) using LC‒MS analysis (5%‒95% ACN in 15 min).

[12] = tested on: A1 domain of CsA1T1 (GdnA); assay: Adenylation activity of A1 domain (ATP/PPi exchange, pyrophosphate production assay); assay type: biochemical, Schlegelella brevitalea DSM 7029; settings: for relative activity of A1 domain for the activation of amino acids, Average: CsA1T1 1 μM, 10 mM amino acid, 2.5 mM ATP, pH 7.6, A360, L-Met = 100%, mean of n = 3; for selectivity of A1 domain for amino acids in words: response to reviewers on Supplementary Fig. 6a
Description: For pyrophosphate production assays, the reaction system contains 10 mM amino acid substrates, 2.5 mM ATP (Solarbio), 0.2 mM MESG (Medchemexpress), 1 U/mL purine nucleoside phosphorylase (Shanghai yuanye Bio-Technology Co., Ltd), 0.4 U/mL inorganic pyrophosphatase (Sigma), 150 mM hydroxylamine (Sigma) and 1 μM proteins in 100 μL buffer (50 mM Tris, 300 mM NaCl and 5 mM MgCl2, pH 7.6). The value was read at A360 in a SpectraMax M5 plate reader (Molecular Devices, Sunnyvale, California) in 96 well, clear-bottomed plates (Corning). A360 values were converted to pyrophosphate release, by comparing with a standard curve (KH2PO4 from 2 μM to 128 μM) for known quantities of pyrophosphate.

In the case of `CC(C)[C@H](NC(=O)[C@@H]1CCCN1C(=O)[C@@H](CC(N)=O)NC(=O)[C@H](N)CC[S+](C)[O-])C(=O)N[C@H](Cc1ccccc1)C(=O)N1CCC[C@H]1C(=O)N[C@@H](Cc1c[nH]c2ccccc12)C(=O)N[C@@H](C(=O)N[C@@H](C)C(=O)N[C@H](C)C(=O)N[C@@H](CO)C(=O)N[C@@H](C)C(=O)NCCCCN)C(C)C` (stereo partly shown) [Compound 2, Glidonin B] (H-[dMet(O)][dN]PV[dF]PW[dV]A[dA]SA-{NH(CH2)4NH2}), the “effect on growth of DSM 7029 wild type in words” value [1] is reported as “no effect”, the “effect on biofilm formation of DSM 7029 wild type in words” value ([2]; crystal violet staining) is reported as “less effect on biofilm formation” and the “biofilm formation 18 h, Average” value ([2]; relative to wild type treated with H2O = 100%, crystal violet 0.1%, OD600, mean of n = 3) is reported as 92.0189%. For the same compound, the “biofilm formation 36 h” value ([2]; relative to wild type treated with H2O = 100%, crystal violet 0.1%, OD600, replicate 1) was 105.006%, the “biofilm formation 36 h” value ([2]; relative to wild type treated with H2O = 100%, crystal violet 0.1%, OD600, replicate 2) was 81.9095% and the “biofilm formation 36 h” value ([2]; relative to wild type treated with H2O = 100%, crystal violet 0.1%, OD600, replicate 3) was 97.572%. For the same compound, the IC50 [3] was > 20 µM, the IC50 (human cells Kasumi) was > 20 µM and the IC50 [4] was > 20 µM. The IC50 [5] was > 20 µM, the IC50 [6] was > 20 µM and the IC50 [7] was > 20 µM. For the same compound, the IC50 [8] was > 20 µM, the IC50 [9] was > 20 µM and the IC50 [10] was > 20 µM.

For `CSCC[C@@H](NC=O)C(=O)N[C@H](CC(N)=O)C(=O)N1CCC[C@H]1C(=O)N[C@H](C(=O)N[C@H](Cc1ccccc1)C(=O)N1CCC[C@H]1C(=O)N[C@@H](Cc1c[nH]c2ccccc12)C(=O)N[C@@H](C(=O)N[C@@H](C)C(=O)N[C@H](C)C(=O)N[C@@H](CO)C(=O)N[C@@H](C)C(=O)NCCCCN)C(C)C)C(C)C` [Compound 4, Glidonin D] (For-[dM][dN]PV[dF]PW[dV]A[dA]SA-{NH(CH2)4NH2}), the IC50 [3] was > 20 µM, the IC50 (human cells Kasumi) was > 20 µM and the IC50 [4] was > 20 µM. For the same compound, the IC50 [5] was > 20 µM, the IC50 [6] was > 20 µM and the IC50 [7] was > 20 µM. The IC50 [8] was > 20 µM, the IC50 [9] was > 20 µM and the IC50 [10] was > 20 µM.

In the case of `CCCCCCCCCC(=O)N[C@H](CCSC)C(=O)N[C@H](CC(N)=O)C(=O)N1CCC[C@H]1C(=O)N[C@H](C(=O)N[C@H](Cc1ccccc1)C(=O)N1CCC[C@H]1C(=O)N[C@@H](Cc1c[nH]c2ccccc12)C(=O)N[C@@H](C(=O)N[C@@H](C)C(=O)N[C@H](C)C(=O)N[C@@H](CO)C(=O)N[C@@H](C)C(=O)NCCCCN)C(C)C)C(C)C` [Compound 6, Glidonin F] (Decanoyl-[dM][dN]PV[dF]PW[dV]A[dA]SA-{NH(CH2)4NH2}), the IC50 [3] is reported as > 20 µM, the IC50 [6] is reported as > 20 µM and the IC50 [9] is reported as > 20 µM. For the same compound, the IC50 [10] was > 20 µM.

With `CCCCCCCCCCCC(=O)N[C@H](CC(C)C)C(=O)N[C@H](CC(N)=O)C(=O)N1CCC[C@H]1C(=O)N[C@H](C(=O)N[C@H](Cc1ccccc1)C(=O)N1CCC[C@H]1C(=O)N[C@@H](Cc1c[nH]c2ccccc12)C(=O)N[C@@H](C(=O)N[C@@H](C)C(=O)N[C@H](C)C(=O)N[C@@H](CO)C(=O)N[C@@H](C)C(=O)NCCCCN)C(C)C)C(C)C` [Compound 9, Glidonin I] (Lauroyl-[dL][dN]PV[dF]PW[dV]A[dA]SA-{NH(CH2)4NH2}) the “cytotoxic / antitumor activity in words” value (tumor lines) was “broad-spectrum cytotoxicity”, the IC50 [3] was 3.26 µM and the IC50 (human cells Kasumi) was 9.65 ± 0.4 µM. For the same compound, the IC50 [4] was > 20 µM, the IC50 [5] was > 20 µM and the IC50 [6] was 10.4 ± 0.54 µM. For the same compound, the IC50 [7] was > 20 µM, the IC50 [8] was > 20 µM and the IC50 [9] was > 20 µM. For the same compound, the IC50 [10] was 4.26 µM.

For `CC(N)C(=O)NCCCCNc1cc(NC(C)C(N)=O)c([N+](=O)[O-])cc1[N+](=O)[O-]` [Compound 24a, L-Ala-Put-FDAA], the “L-Ala condensing with Put, 1,5-diaminopentane, 1,6-diaminohexane, and 1,7-diaminoheptane (Relative Yield of product)” value (“L-Ala condensing … (Relative Yield of product)” below) ([11]; protein A12T12) was 100 and the “L-Ala condensing … (Relative Yield of product)” value ([11]; protein A12T12C13A*T13) was 1640.

`CC(N)C(=O)NCCCCCNc1cc(NC(C)C(N)=O)c([N+](=O)[O-])cc1[N+](=O)[O-]` (stereo not shown) [Compound 25a] was tested, and the “L-Ala condensing … (Relative Yield of product)” value ([11]; protein A12T12) was 100 and the “L-Ala condensing … (Relative Yield of product)” value ([11]; protein A12T12C13A*T13) was 794.339.

With `NCC(=O)O` [Gly] the “relative activity of A1 domain for the activation of amino acids, Average” value (shortened to “relative activity of A1 domain”) [12] was 3.896%.

`C[C@H](N)C(=O)O` [L-Ala] was tested, and the “relative activity of A1 domain” value [12] was 37.8571% and the “selectivity of A1 domain for amino acids in words” value [12] was “broad selectivity”.

With `NC(=O)C[C@H](N)C(=O)O` [L-Asn] the “relative activity of A1 domain” value [12] was 8.604%.

In the case of `N[C@@H](CS)C(=O)O` [L-Cys], the “relative activity of A1 domain” value [12] is reported as 4.302%.

In the case of `NC(=O)CC[C@H](N)C(=O)O` [L-Gln], the “relative activity of A1 domain” value [12] is reported as 42.7539% and the “selectivity of A1 domain for amino acids in words” value [12] is reported as “broad selectivity”.
